Among the data in publication PMC10385826, “Towards Symmetric Thioamides: Microwave-Aided Synthesis of Terephthalic Acid Derivatives” (Pharmaceuticals, 2023) are LD50 and melting point values, retold here.

Details of the first data set: method as in PMID 16673812. As to conditions: oral administration; cited from earlier work.
The LD50 is the dose expected to kill half of the subjects tested. In the case of `O=C(O)c1ccc(C(=O)O)cc1` [TPA, Terephthalic acid], the LD50 is more than 5000 mg/kg.

Details in the next data set: not given
What is called melting point is the temperature of the solid-liquid transition. On to `COC(=O)C(CO)NC(=O)c1ccc(C(=O)NC(CO)C(=O)OC)cc1` (stereo not drawn), for which the melting point came to 169 °C.

As to `COC(=O)C(NC(=S)c1ccc(C(=S)NC(C(=O)OC)C(C)C)cc1)C(C)C` (stereo not drawn), the melting point is 160 °C.

In the case of `COC(=O)CNC(=S)c1ccc(C(=S)NCC(=O)OC)cc1`, the melting point worked out at 86 °C.

As for `COC(=O)C(NC(=O)c1ccc(C(=O)NC(C(=O)OC)C(C)C)cc1)C(C)C` (stereo not drawn), the melting point came to 115 °C.

As for `COC(=O)C(CO)NC(=S)c1ccc(C(=S)NC(CO)C(=O)OC)cc1` (stereo not drawn), the melting point was 179 °C.

`COC(=O)C(Cc1ccc(O)cc1)NC(=S)c1ccc(C(=S)NC(Cc2ccc(O)cc2)C(=O)OC)cc1` (stereo not drawn) had a melting point of 170 °C.

Take `COC(=O)C(Cc1ccc(O)cc1)NC(=O)c1ccc(C(=O)NC(Cc2ccc(O)cc2)C(=O)OC)cc1` (stereo not drawn): the melting point was found to be 185 °C.

In turn, `COC(=O)C(C)NC(=S)c1ccc(C(=S)NC(C)C(=O)OC)cc1` (stereo not drawn) displayed a melting point of 174 °C.
